# Where two headings read alike, the source gives them in different places. Bridge positions count the residues as written; N and C are the ends. Square brackets hold non-standard residues; d marks the D form. Ends that are not written are not given here. Peptide text beside a SMILES is read from it.
# Key:
# [1] = tested on: αvβ3 integrin; conditions: cited from earlier work
# Source text: In our current study, 20 new LXW analogs were predicted via in silico screening with a high binding affinity to αvβ3 integrin. […] These X7 amino acids can be classified into two groups according to their side-chain structures—cyclic (total 13) and non-cyclic (aliphatic, total 7). […] Among the cyclic amino acids, the aromatic (mainly polycyclic excepted DPH ...
# [2] = biological target: T1, αvβ3 integrin (Homo sapiens, UniProt P05106+P06756); conditions: cited from earlier work
# T1 construct: expressed in transfected cells; host or cells: K562 human leukemia cells (ATCC) transfected with αvβ3 integrin
# Source text: Targeting tumor cells or tumor vasculature by RGD-based strategies is a promising approach for delivering anticancer drugs or contrast agents for cancer therapy and diagnosis. RGD-based strategies include RGD peptide or peptidomimetic drugs, RGD-conjugates, and the grafting of the RGD peptide or peptidomimetic, as targeting ligand, at the surfa ... || (+ 4 further places)
# [3] = tested on: α5β1; conditions: integrin expressed on K562 cells; cited from earlier work
# Source text: (§1) Structure–activity relationship between LXW peptides and αvβ3 LXW analogs are a new category of RGD-containing cyclopeptides that binds specifically to αvβ3 integrin [7, 8]. The LXW analogs were designed and screened using OBOC combinatorial technology. Unlike other RGD cyclopeptide antagonists (i.e., cilengitide), LXW analogs are extended circular structures with a disulfide bond formed between two cysteines in the peptide sequence (cGRGDdXc). D-configuration of two cysteines in these analogs is essential for the antagonistic activity, which can force the cyclopeptide to adopt ...
# [4] = tested on: αIIbβ3; conditions: integrin expressed on K562 cells; cited from earlier work
# Source text: as §1
# [5] = tested on: αvβ3; conditions: integrin expressed on K562 cells; cited from earlier work
# Source text: as §1
# [6] = tested on: αvβ5; conditions: integrin expressed on K562 cells; cited from earlier work
# Source text: as §1
# [7] = biological target: T1, αvβ3 integrin; assay: Competitive binding assay by flow cytometry: competition with 1 μM biotinylated LXW7 binding to αvβ3-K562 cells
# Description: To further verify our in silico screening results, we examined the binding of new LXW-analogous peptides to αvβ3 integrin in αvβ3-K562 cells. LXZ2 with DNTL as the X7 residue (Figure 6 left) was arbitrarily chosen and tested through flow cytometry for competing with 1 μM biotinylated LXW7 binding to αvβ3 integrin. […] The IC50 of the peptide inhibiting biotinylated LXW7 binding with K562/αvβ3+ cells was determined (Figure 6 right).
# Figure 6 (A) Chemical structure of LXZ2; (B) Competitive binding assay. […] Positive control (cyan), cells were treated with 1μM biotinylated LXW7 and streptavidin-PE successively, and measured with flow cytometry. Negative control (red) represents cells without treatment of biotinylated LXW7. (C) IC50 measurement of LXW7 and LXZ2. The IC50s were determined with competitive binding assay by using a series of concentrations of LXW7 or LXZ2 competing with 1 μM biotinylated LXW7 binding to αvβ3-K562 cells. TEXT PRINTED IN THE PICTURE: (C) LXW7: IC50(μM): 1.53 | (C) LXZ2: IC50(μM): 0.31
# The human leukemia cancer cells (K562, ATCC, Manassas, VA, USA) transfected with αvβ3-integrin were grown in the RPMI1640 medium and used for the assay as previously described. […] The samples were washed with 1 mL PBS containing 1% FBS for three times, then incubated with a 1:500 dilution of streptavidin-PE (1 mg/mL) for 30 min on ice followed by a single wash with 1 mL of PBS containing 1% FBS. Finally, the samples were analyzed via flow cytometry (Coulter XL-MCL). To measure the half-maximal inhibitory concentration (IC50) of the peptides, various diluted peptide solutions were mixed with 1.0 μM biotinylated LXW7, then incubated with cells, and followed by streptavidin-PE incubation. The samples were run through flow cytometer and Mean Fluorescence Intensity was decided for each individual sample. The IC50s were calculated from each sample based on the readings.
# [8] = concentration of peptide required for inhibition of 0.5 µmoL/L biotinylated LXW7 binding to K562/αvβ3+ cells by half, Table 1
# [9] = known IC50s from previous in vitro screening, binding to αvβ3 integrin, Table 3
# [10] = series of peptide concentrations competing with 1 μM biotinylated LXW7 binding to αvβ3-K562 cells, flow cytometry, streptavidin-PE, PBS, 10% FBS, 1 mM MnCl2, 30 min on ice, Figure 6C, read-out: IC50
compound,measurement,setting,value
cilengitide,IC50,[1],0.25 µM
"cGRGDd-DNal1-c-NH2 (disulfide) [LXW64, cyclic octapeptide cGRGDd-DNal1-c-NH2 with 3-(1-naphthyl)-D-alanine at X7]",higher binding affinity than LXW7,[2]; binding affinity to αvβ3 relative to LXW7,6 fold
same,IC50,[2]; [8],0.07 µM
same,IC50,[2]; [9],0.07 µM
same,binding to α5β1,[3],weak or no binding
same,binding to αIIbβ3,[4],weak or no binding
same,binding with αvβ3,[5],significant positive binding
same,binding to αvβ5,[6],weak or no binding
"LXW26: LXW analog with D-Ile as X amino acid (CGRGDDIC; cyclic via D-Cys1-D-Cys8 disulfide; D-Cys1, D-Asp6, D-Ile7, D-Cys8; C-terminal amide (template cGRGDdXc-NH2, X = D-Ile))",IC50,[2]; [9],1.84 µM
CC(C)[C@H]1NC(=O)[C@@H](CC(=O)O)NC(=O)[C@H](CC(=O)O)NC(=O)CNC(=O)[C@H](CCCNC(=N)N)NC(=O)CNC(=O)[C@H](N)CSSC[C@H](C(N)=O)NC1=O [LXW7] (H-[dC]GRGD[dD][dV][dC]-NH2; disulfide 1-8),IC50,[7]; [10],1.53 µM
N=C(N)NCCC[C@@H]1NC(=O)CNC(=O)[C@H](N)CSSC[C@H](C(N)=O)NC(=O)[C@@H](Cc2c3ccccc3cc3ccccc23)NC(=O)[C@@H](CC(=O)O)NC(=O)[C@H](CC(=O)O)NC(=O)CNC1=O [LXZ2],binding affinity compared with LXW7 in competitive binding,"[7]; 5 μM peptide competes with 1 μM biotinylated LXW7 binding to αvβ3-K562 cells, flow cytometry, Figure 6B",stronger binding affinity than the first lead—LXW7
same,IC50,"[7]; converted, referred to LXW7 in Table 3, read-out: converted IC50",0.09 µM
same,IC50,[7]; [10],0.31 µM
"CGRGDdvC-NH2 (disulfide) (CGRGD[dD][dV]C-NH2; disulfide 1-8; N-terminus assumed; SMILES CC(C)[C@H]1NC(=O)[C@@H](CC(=O)O)NC(=O)[C@H](CC(=O)O)NC(=O)CNC(=O)[C@H](CCCNC(=N)N)NC(=O)CNC(=O)[C@@H](N)CSSC[C@@H](C(N)=O)NC1=O) [LXW11, LXW7 isomer CGRGDdvC-NH2 with two L-cysteines]",IC50,[2]; [8],> 20 µM
same,IC50,[2]; [9],> 20 µM
